Results as given in ChEMBL document CHEMBL1201862, “PubChem BioAssay data set” (2004).
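Cultured in 96-well plates, cells were exposed to test compound for 48 hours across five concentrations. Here, GI50 denotes the concentration required for 50% inhibition of growth.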 Active and inactive are the calls of the source. Cut-off read from the data, not from the text of the source: active = GI50 up to about 1.1 µM and inactive = higher.

Legend:
Assay in all cases: NCI tumour cell line growth inhibition, 48 h
[1] = test system: HOP-92
[2] = test system: KM12
[3] = test system: UACC-257
[4] = test system: OVCAR-4
[5] = test system: MOLT-4
[6] = test system: UO-31
[7] = test system: HOP-62
[8] = test system: NCI-H460
[9] = test system: A498
[10] = test system: Malme-3M
[11] = test system: HCT-116
[12] = test system: EKVX
[13] = test system: MDA-MB-231
[14] = test system: HL-60
[15] = test system: SK-OV-3
[16] = test system: RPMI-8226
[17] = test system: MDA-MB-435
[18] = test system: DU-145
[19] = test system: Hs-578T

SMILES | GI50 [1] | GI50 [2] | GI50 [3] | GI50 [4] | GI50 [5] | GI50 [6] | GI50 [7] | GI50 [8] | GI50 [9] | GI50 [10] | GI50 [11] | GI50 [12] | GI50 [13] | GI50 [14] | GI50 [15] | GI50 [16] | GI50 [17] | GI50 [18] | GI50 [19]
O=S(=O)(O)CCCc1cccc2ccccc12 | > 100 µM (inactive) | > 100 µM (inactive) | > 100 µM (inactive) | > 100 µM (inactive) | > 100 µM (inactive) | > 100 µM (inactive) | > 100 µM (inactive) | > 100 µM (inactive) | > 100 µM (inactive) | > 100 µM (inactive) | > 100 µM (inactive) | > 100 µM (inactive) | > 100 µM (inactive) | 31.3 µM (inactive) | > 100 µM (inactive) | > 100 µM (inactive) | > 100 µM (inactive) | > 100 µM (inactive) | > 100 µM (inactive)
O=C(O)COc1c(Cl)cc(Cl)c(C(c2c(Cl)cc(Cl)c(OCC(=O)O)c2Cl)C(Cl)(Cl)Cl)c1Cl | 25.2 µM (inactive) | 40.1 µM (inactive) | 26.2 µM (inactive) | 30.8 µM (inactive) | 35.3 µM (inactive) | 23 µM (inactive) | 0.398 µM (active) | 31.6 µM (inactive) | 35.7 µM (inactive) | 28.7 µM (inactive) | 28.2 µM (inactive) | – | 24.9 µM (inactive) | 21.7 µM (inactive) | 20.9 µM (inactive) | 28.3 µM (inactive) | 23 µM (inactive) | 38.3 µM (inactive) | 38 µM (inactive)
CCOC(=O)C(=O)/C(=C/N1C(=O)CC(=O)NC1=S)C(=O)OCC | 9.29 µM (inactive) | > 100 µM (inactive) | > 100 µM (inactive) | > 100 µM (inactive) | > 100 µM (inactive) | 26.8 µM (inactive) | > 100 µM (inactive) | > 100 µM (inactive) | 83.6 µM (inactive) | > 100 µM (inactive) | > 100 µM (inactive) | > 100 µM (inactive) | > 100 µM (inactive) | > 100 µM (inactive) | > 100 µM (inactive) | > 100 µM (inactive) | > 100 µM (inactive) | > 100 µM (inactive) | 18.7 µM (inactive)
CN1CCN(CCCCN2c3ccccc3Sc3cc(N=[N+]=[N-])ccc32)CC1 | 1.94 µM (inactive) | 1.84 µM (inactive) | 1.99 µM (inactive) | 2.88 µM (inactive) | 1.77 µM (inactive) | 0.586 µM (active) | 2.49 µM (inactive) | 1.94 µM (inactive) | 9.14 µM (inactive) | 1.71 µM (inactive) | 1.62 µM (inactive) | 5.69 µM (inactive) | 1.91 µM (inactive) | 2.26 µM (inactive) | 8.49 µM (inactive) | 2.31 µM (inactive) | 1.7 µM (inactive) | 4.21 µM (inactive) | 1.95 µM (inactive)
[N-]=[N+]=NCC(=O)c1cnc(O)nc1O | > 100 µM (inactive) | > 100 µM (inactive) | > 100 µM (inactive) | > 100 µM (inactive) | – | > 100 µM (inactive) | > 100 µM (inactive) | > 100 µM (inactive) | > 100 µM (inactive) | > 100 µM (inactive) | > 100 µM (inactive) | > 100 µM (inactive) | > 100 µM (inactive) | > 100 µM (inactive) | > 100 µM (inactive) | > 100 µM (inactive) | > 100 µM (inactive) | > 100 µM (inactive) | > 100 µM (inactive)
